Among the data in BindingDB's records for doi:10.1016/j.bmcl.2009.04.124 (H. Lee Moffitt Cancer Center, 2009) are IC50 values, retold here.

The experiment has as its target E3 ubiquitin-protein ligase Mdm2 (Homo sapiens, UniProt Q00987). Kind of experiment: AlphaScreen Assay. As to conditions: pH 7.4; 24 °C. On the procedure:
When two proteins interact (one of which is conjugated to the donor bead and the other to the acceptor bead) the beads are brought into close proximity. Excitation of a photosensitizer in the donor bead results in the production of singlet oxygen that diffuses to and reacts with a chemiluminescent molecule in the acceptor bead. […] Nickel acceptor beads and glutathione donor beads were added. Following 1 h incubation at 24 deg C, the mixture was analyzed in a fluorometer at an excitation wavelength of 680 nm. Nutlin-3a obtained from Cayman Chemical was used as a control. The IC50 values reported are from runs repeated four times.

E3 ubiquitin-protein ligase Mdm2, sequence (Q00987 whole entry): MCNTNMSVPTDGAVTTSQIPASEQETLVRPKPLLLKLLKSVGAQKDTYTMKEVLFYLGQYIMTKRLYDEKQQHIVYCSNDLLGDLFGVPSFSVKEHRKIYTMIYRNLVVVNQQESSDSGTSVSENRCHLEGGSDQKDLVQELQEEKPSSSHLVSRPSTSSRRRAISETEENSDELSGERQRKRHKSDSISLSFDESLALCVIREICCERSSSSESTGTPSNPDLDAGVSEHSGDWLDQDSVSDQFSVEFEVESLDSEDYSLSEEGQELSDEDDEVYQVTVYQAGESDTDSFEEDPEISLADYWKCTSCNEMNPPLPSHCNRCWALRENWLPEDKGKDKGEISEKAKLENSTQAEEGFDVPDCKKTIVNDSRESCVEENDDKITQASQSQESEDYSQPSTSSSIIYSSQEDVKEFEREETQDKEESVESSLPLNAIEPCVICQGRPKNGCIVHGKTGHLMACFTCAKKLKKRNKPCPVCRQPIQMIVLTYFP

As usually defined, the IC50 is the midpoint of a concentration-inhibition curve. High values mean weaker potency, low ones greater potency. For the molecule `c1ccc(C(N=Nc2nc3ccccc3s2)c2ccccn2)cc1` (stereo unspecified) [NSC-333003], the midpoint of inhibition, the IC50, lay at 25 µM.
